{"source": "patent US12134610B2", "about": "“Somatostatin subtype-2 receptor (SST2R) targeted therapeutics and uses thereof” (priority 2022, dated 2024)", "note": "pEC50: −log10 of the molar value."}
{"target": "T1, human somatostatin receptor subtype 2 (Homo sapiens, UniProt P30874)", "T1 construct": "expressed in transfected cells", "T1 sequence (P30874 whole entry)": "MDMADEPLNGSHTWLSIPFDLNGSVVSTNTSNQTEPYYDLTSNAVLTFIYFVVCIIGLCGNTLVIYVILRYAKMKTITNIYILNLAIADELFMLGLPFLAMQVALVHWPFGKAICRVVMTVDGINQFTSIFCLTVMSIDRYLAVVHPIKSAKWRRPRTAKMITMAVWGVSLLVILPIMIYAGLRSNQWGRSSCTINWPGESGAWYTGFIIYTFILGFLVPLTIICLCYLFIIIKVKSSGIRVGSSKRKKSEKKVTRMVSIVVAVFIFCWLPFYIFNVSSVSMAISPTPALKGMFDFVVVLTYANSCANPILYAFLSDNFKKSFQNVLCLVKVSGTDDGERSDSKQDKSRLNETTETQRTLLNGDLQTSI", "test": "Functional cAMP assay for SSTR2 agonists (HTRF) in CHO-K1 cells", "assay_type": "cell-based", "settings": "CHO-K1 cells stably expressing human SST2, 20 min; read-out: hSST2 cAMP Avg EC50", "description": "(§1) General overview: All five SSTR subtypes are Gi coupled G-protein coupled receptors (GPCRs) that lead to decreases in intracellular cyclic AMP (cAMP) when activated by an agonist. Therefore, measurement of intracellular cAMP levels can be used to assess whether compounds of the invention are agonists of SSTR subtypes (John Kelly, Troy Stevens, W. Joseph Thompson, and Roland Seifert, Current Protocols in Pharmacology, 2005, 2.2.1-2.2). One example of an intracellular cAMP assay is described below.\n(§2) Functional Assay for SSTR2 Agonists\n(§3) Four days prior to the assay, 2,000 Chinese hamster ovary cells (CHO-K1, ATCC #CCL-61) stably expressing the human somatostatin receptor subtype 2 are plated in each well of a 96-well tissue culture-treated plate in Ham's F12 growth media (ThermoFisher #10-080-CM) supplemented with 10% donor bovine serum (Gemini Bio-Products #100-506), 100 U/mL penicillin; 100 ug/mL streptomycin; 2 mM L-glutamine (Gemini Bio-Products #400-110) and 0.2 mg/mL hygromycin B (GoldBio #31282-04-9). The cells are cultured at 37° C., 5% CO2 and 95% humidity. cAMP is measured with HTRF dynamic cAMP assay (Cisbio, #62AM5PEJ) per manufacturer's instructions. On the day of the assay, the media is aspirated and the cells are treated with 50 μL of stimulation buffer supplemented with 10.2 mM 3-Isobutyl-1-methylxanthine (IBMX, Millipore Sigma #15879) and 1.6 μM NKH477 (Tocris #1603), plus various dilutions of SMDCs of the present invention. The cells are incubated for 20 minutes at 37° C. (the final concentration of the compounds of the invention are typically 0-10,000 nM). The cells are treated with 50 μL of lysis buffer (HRTF cAMP kit, Cisbio) and incubated at room temperature for 30 minutes with rotary shaking at 600 rpm, and then diluted with 150 μL of stimulation buffer and shaken for an additional five minutes at 300 rpm. The lysate is transferred to 384-well plates and incubated for 1-24 hours at room temperature, and cAMP accumulation is detected by d2-labeled cAMP and Anti-cAMP-Cryptate. The time-resolved fluorescent signal is read using a m1000 Pro (Tecan) or CLARIOStar (BMG Labtech) microplate reader, where the samples are excited with light at 340 nm and emission light is measured at 620 nm and 665 nm. The data is expressed as a calculation of the fluorescence ratio (665 nm/620 nm). The intracellular cAMP concentrations are calculated by regression to a standard curve and are plotted vs. the concentration of the compounds of the invention. The EC50 of the compounds are calculated using standard methods. All data manipulations are in GraphPad Prism v9 (GraphPad, San Diego, CA)."}
{"smiles": "Cc1cc(F)cc(-c2cnc(NCCNC(=O)CCOCCOCCOCCOCCOCCNC(=O)CN3CCN(CC(=O)O)CCN(CC(=O)O)CCN(CC(=O)O)CC3)c(-c3nc4cc(Cl)ccc4[nH]3)c2N2CCC(N)CC2)c1", "note": "[Comp. 1, 2-{7-[({17-[(2-{[4-(4-aminopiperidin-1-yl)-3-(5-chloro-1H-1,3-benzodiazol-2-yl)-5-(3-fluoro-5-methylphenyl)pyridin-2-yl]amino}ethyl)carbamoyl]-3,6,9,12,15-pentaoxaheptadecan-1-yl}carbamoyl)methyl}-4,10-bis(carboxymethyl)-1,4,7,10-tetraazacyclododecan-1-yl}acetic acid, reference compound]", "pEC50": 10.12}
{"smiles": "Cc1cc(F)cc(-c2cnc(NCCOC(=O)NCCOCCOCCOCCOCCOCCNC(=O)CN3CCN(CC(=O)O)CCN(CC(=O)O)CCN(CC(=O)O)CC3)c(-c3nc4cc(Cl)ccc4[nH]3)c2N2CCC(N)CC2)c1", "note": "[Comp. 2, 2-(7-{[(17-{[(2-{[4-(4-aminopiperidin-1-yl)-3-(5-chloro-1H-1,3-benzodiazol-2-yl)-5-(3-fluoro-5-methylphenyl)pyridin-2-yl]amino}ethoxy)carbonyl]amino}-3,6,9,12,15-pentaoxaheptadecan-1-yl)carbamoyl]methyl}-4,10-bis(carboxymethyl)-1,4,7,10-tetraazacyclododecan-1-yl)acetic acid, reference compound]", "pEC50": 9.77}
{"smiles": "Cc1cc(F)cc(-c2cnc(NCCCNC(=O)CCOCCOCCOCCOCCOCCNC(=O)CN3CCN(CC(=O)O)CCN(CC(=O)O)CCN(CC(=O)O)CC3)c(-c3nc4cc(Cl)ccc4[nH]3)c2N2CCC(N)CC2)c1", "note": "[Compound 3, 2-{7-[{{17-[(3-{[4-(4-aminopiperidin-1-yl)-3-(5-chloro-1H-1,3-benzodiazol-2-yl)-5-(3-fluoro-5-methylphenyl)pyridin-2-yl]amino}propyl)carbamoyl]-3,6,9,12,15-pentaoxaheptadecan-1-yl}carbamoyl)methyl]-4,10-bis(carboxymethyl)-1,4,7,10-tetraazacyclododecan-1-yl}acetic acid]", "pEC50": 9.85}
{"smiles": "Cc1cc(F)cc(-c2cnc(NC3CCN(C(=O)CCOCCOCCOCCOCCOCCOCCNC(=O)CN4CCN(CC(=O)O)CCN(CC(=O)O)CCN(CC(=O)O)CC4)CC3)c(-c3nc4cc(Cl)ccc4[nH]3)c2N2CCC(N)CC2)c1", "note": "[Compound 4, 2-[7-({[21-(4-{[4-(4-aminopiperidin-1-yl)-3-(5-chloro-1H-1,3-benzodiazol-2-yl)-5-(3-fluoro-5-methylphenyl)pyridin-2-yl]amino}piperidin-1-yl)-21-oxo-3,6,9,12,15,18-hexaoxahenicosan-1-yl]carbamoyl}methyl)-4,10-bis(carboxymethyl)-1,4,7,10-tetraazacyclododecan-1-yl]acetic acid]", "pEC50": 9.70}
{"smiles": "Cc1cc(F)cc(-c2cnc(NCCOCCOCCOCCOCCNC(=O)CN3CCN(CC(=O)O)CCN(CC(=O)O)CCN(CC(=O)O)CC3)c(-c3ccc(C(F)(F)F)cc3)c2N2CCC(N)CC2)c1", "note": "[Compound 5, 2-(4-{[(14-{[4-(4-aminopiperidin-1-yl)-5-(3-fluoro-5-methylphenyl)-3-[4-(trifluoromethyl)phenyl]pyridin-2-yl]amino}-3,6,9,12-tetraoxatetradecan-1-yl)carbamoyl]methyl}-7,10-bis(carboxymethyl)-1,4,7,10-tetraazacyclododecan-1-yl)acetic acid]", "pEC50": 9.18}
{"smiles": "COCCOCCOCCOCCOCCC(=O)NCCNc1ncc(-c2cc(C)cc(F)c2)c(N2CCC(N)CC2)c1-c1nc2ccc(Cl)cc2[nH]1", "note": "[Compound 14, N-(2-{[4-(4-aminopiperidin-1-yl)-3-(6-chloro-1H-1,3-benzodiazol-2-yl)-5-(3-fluoro-5-methylphenyl)pyridin-2-yl]amino}ethyl)-2,5,8,11,14-pentaoxaheptadecan-17-amide]", "pEC50": 10.32}
{"smiles": "Cc1cc(F)cc(-c2cnc(NCCNC(=O)CCOCCOCCOCCOCCOCCNC(=O)CN3CCN4CCN5CCN(CC3)CC(=O)[O][In]([O]C(=O)C4)[O]C(=O)C5)c(-c3nc4cc(Cl)ccc4[nH]3)c2N2CCC(N)CC2)c1", "note": "[Compound 15, N-(2-{[4-(4-aminopiperidin-1-yl)-3-(5-chloro-1H-1,3-benzodiazol-2-yl)-5-(3-fluoro-5-methylphenyl)pyridin-2-yl]amino}ethyl)-1-(2-{3,16,19-trioxo-2,17,18-trioxa-5,8,11,14-tetraaza-1-indatricyclo[9.6.3.2^5,14]docosan-8-yl}acetamido)-3,6,9,12,15-pentaoxaoctadecan-18-amide]", "pEC50": 10.24}
{"smiles": "Cc1cc(F)cc(-c2cnc(NCCCNC(=O)CCOCCOCCOCCOCCOCCNC(=O)CN3CCN4CCN5CCN(CC3)CC(=O)[O][In]([O]C(=O)C4)[O]C(=O)C5)c(-c3nc4cc(Cl)ccc4[nH]3)c2N2CCC(N)CC2)c1", "note": "[Compound 16, N-(3-{[4-(4-aminopiperidin-1-yl)-3-(5-chloro-1H-1,3-benzodiazol-2-yl)-5-(3-fluoro-5-methylphenyl)pyridin-2-yl]amino}propyl)-1-(2-{3,16,19-trioxo-2,17,18-trioxa-5,8,11,14-tetraaza-1-indatricyclo[9.6.3.2^5,^14]docosan-8-yl}acetamido)-3,6,9,12,15-pentaoxaoctadecan-18-amide]", "pEC50": 9.96}
{"smiles": "Cc1cc(F)cc(-c2cnc(NC3CCN(C(=O)CCOCCOCCOCCOCCOCCOCCNC(=O)CN4CCN5CCN6CCN(CC4)CC(=O)[O][In]([O]C(=O)C5)[O]C(=O)C6)CC3)c(-c3nc4cc(Cl)ccc4[nH]3)c2N2CCC(N)CC2)c1", "note": "[Compound 17, N-[21-(4-{[4-(4-aminopiperidin-1-yl)-3-(5-chloro-1H-1,3-benzodiazol-2-yl)-5-(3-fluoro-5-methylphenyl)pyridin-2-yl]amino}piperidin-1-yl)-21-oxo-3,6,9,12,15,18-hexaoxahenicosan-1-yl]-2-{3,16,19-trioxo-2,17,18-trioxa-5,8,11,14-tetraaza-1-indatricyclo[9.6.3.2^5,^14]docosan-8-yl}acetamide]", "pEC50": 10.00}
{"smiles": "Cc1cc(F)cc(-c2cnc(NCCOCCOCCOCCOCCNC(=O)CN3CCN4CCN5CCN(CC3)CC(=O)[O][In]([O]C(=O)C4)[O]C(=O)C5)c(-c3ccc(C(F)(F)F)cc3)c2N2CCC(N)CC2)c1", "note": "[Compound 18, N-(14-{[4-(4-aminopiperidin-1-yl)-5-(3-fluoro-5-methylphenyl)-3-[4-(trifluoromethyl)phenyl]pyridin-2-yl]amino}-3,6,9,12-tetraoxatetradecan-1-yl)-2-{3,16,19-trioxo-2,17,18-trioxa-5,8,11,14-tetraaza-1-indatricyclo[9.6.3.2^5,^14]docosan-8-yl}acetamide]", "pEC50": 8.74}
{"target": "T1, human somatostatin receptor subtype 2", "test": "Functional cAMP assay for SSTR2 agonists (HTRF) in CHO-K1 cells", "assay_type": "cell-based", "settings": "hSST2 cAMP Avg EC50 (nM), CHO-K1 cells stably expressing human SST2, 20 min", "description": "as §1, §2, §3", "units": {"EC50": "nM"}}
{"smiles": "CC[C@@]1(O)C(=O)OCc2c1cc1n(c2=O)Cc2c-1nc1cc(F)c(C)c3c1c2[C@@H](NC(=O)OCc1ccc(NC(=O)[C@H](CCCNC(N)=O)NC(=O)[C@@H](NC(=O)CCOCCC(=O)NCCNc2ncc(-c4cc(C)cc(F)c4)c(N4CCC(N)CC4)c2-c2nc4ccc(Cl)cc4[nH]2)C(C)C)c(O[C@@H]2O[C@H](C(=O)O)[C@@H](O)[C@H](O)[C@H]2O)c1)CC3", "note": "[Compound 73]", "EC50": 0.49}
{"smiles": "CC[C@@]1(O)C(=O)OCc2c1cc1n(c2=O)Cc2c-1nc1cc(F)c(C)c3c1c2[C@@H](NC(=O)OCc1ccc(NC(=O)[C@H](CCCNC(N)=O)NC(=O)[C@@H](NC(=O)CCOCCOCCOCCOCCC(=O)NCCNc2ncc(-c4cc(C)cc(F)c4)c(N4CCC(N)CC4)c2-c2nc4ccc(Cl)cc4[nH]2)C(C)C)c(O[C@@H]2O[C@H](C(=O)O)[C@@H](O)[C@H](O)[C@H]2O)c1)CC3", "note": "[Compound 74]", "EC50": 0.31}
